Like-named read-outs stand apart in the source and are kept apart here.
Legend:
full length human CD39L3 [1] = biological target: T1, full length human CD39L3 (Homo sapiens, UniProt O75355, A496V); assay: Piper Phosphate Assay of CD39L3 nucleotide hydrolysis activity in transiently transfected HEK293 cells; assay type: biochemical
T1 construct: Cells were transiently transfected with the full length human CD39L3 clone; expressed in transfected cells; host or cells: HEK293 cells, transiently transfected; frozen and thawed intact cells
T1 sequence (O75355 1-529 A496V): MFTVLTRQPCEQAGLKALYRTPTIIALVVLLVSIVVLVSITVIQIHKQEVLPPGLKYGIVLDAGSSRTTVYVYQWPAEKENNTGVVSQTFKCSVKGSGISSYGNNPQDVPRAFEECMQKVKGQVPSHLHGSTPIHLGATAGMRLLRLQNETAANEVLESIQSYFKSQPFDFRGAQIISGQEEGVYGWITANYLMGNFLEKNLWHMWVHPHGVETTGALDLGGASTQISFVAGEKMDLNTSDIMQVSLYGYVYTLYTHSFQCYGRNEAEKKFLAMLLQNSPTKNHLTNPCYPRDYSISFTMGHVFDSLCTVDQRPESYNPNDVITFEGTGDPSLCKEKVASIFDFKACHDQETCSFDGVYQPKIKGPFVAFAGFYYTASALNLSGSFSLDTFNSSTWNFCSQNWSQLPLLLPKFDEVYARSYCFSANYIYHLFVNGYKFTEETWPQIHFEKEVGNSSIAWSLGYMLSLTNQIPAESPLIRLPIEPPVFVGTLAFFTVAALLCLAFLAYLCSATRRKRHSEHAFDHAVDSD
Procedure: (§1) FIG. 4 illustrates the Km of ATP determined for full length human CD39L3 in transiently transfected HEK293 cells. The Km of ATP values determined under two concentrations of each cation source: CaCl2 and MgCl2. […] Activity assays were performed with the Piper Phosphate Assay (Molecular Probes).
(§2) FIG. 5 illustrates the Km of ADP determined for full length human CD39L3 in transiently transfected HEK293 cells. The Km of ADP values determined under two concentrations of each cation source: CaCl2 and MgCl2. […] Activity assays were performed with the Piper Phosphate Assay (Invitrogen).
(§3) FIG. 6 illustrates the inhibition of CD39L3 examined with the general ectoATPase inhibitor, ARL 67156. HEK293 cells were transiently transfected with full length human CD39L3. […] Activity assays were performed with the Piper Phosphate Assay (Molecular Probes).
(§4) As the activity of CD39L3 involves the hydrolysis of nucleoside triphosphates and diphosphates, Molecular Probes' Piper Phosphate Assay Kit™, which is an assay that detects free phosphate, a product of the hydrolysis, was used.
(§5) Cells were transiently transfected with the full length human CD39L3 clone were measured for nucleotide hydrolysis activity in suspension or adhered to the plate, within an isotonic buffer including the required cation cofactor, calcium or magnesium. Batches of transiently transfected CD39L3 cells were produced and frozen until use.
(§6) Using cells that were frozen and thawed, the Piper Phosphate Assay was used to determine the Km of ATP and ADP for the full length human CD39L3 clone (FIGS. 4 and 5). In addition, to validate the detection of an inhibitor with this assay format, a general ectoATPase inhibitor, ARL 67156, was examined.

full length human CD39L3 [2] = biological target: T2, full length human CD39L3 (Homo sapiens, UniProt O75355); assay: as above; assay type: biochemical; conditions: HEK293 cells transiently transfected with full length human CD39L3, read-out: IC50, inhibition of CD39L3
T2 construct: Cells were transiently transfected with the full length human CD39L3 clone; expressed in transfected cells; host or cells: HEK293 cells, transiently transfected; frozen and thawed intact cells
T2 sequence (O75355 1-529 A496V): T1 sequence (O75355 1-529 A496V)
Procedure: as §1, §2, §3, §4, §5, §6

## Nc1ncnc2c1ncn2[C@@H]1O[C@H](COP(=O)(O)OP(=O)(O)O)[C@@H](O)[C@H]1O [ADP]
Full length human CD39L3 [1]; 1 mM CaCl2, read-out: Km of ADP
  Km: 42 µM
Full length human CD39L3 [1]; 1 mM MgCl2, read-out: Km of ADP
  Km: 35 µM
Full length human CD39L3 [1]; 5 mM CaCl2, read-out: Km of ADP
  Km: 39 µM
Full length human CD39L3 [1]; 5 mM MgCl2, read-out: Km of ADP
  Km: 44 µM

## CCN(CC)c1ncnc2c1ncn2[C@@H]1O[C@H](COP(=O)(O)OP(=O)(O)C(Br)(Br)P(=O)(O)O)[C@@H](O)[C@H]1O [ARL 67156]
Full length human CD39L3 [2]; 40 uM ADP+5 mM CaCl2
  IC50: 59 µM
Full length human CD39L3 [2]; 40 uM ADP+5 mM MgCl2
  IC50: 57 µM
Full length human CD39L3 [2]; 65 μM ATP+5 mM CaCl2
  IC50: 49 µM
Full length human CD39L3 [2]; 65 uM ATP+5 mM MgCl2
  IC50: 59 µM

## Nc1ncnc2c1ncn2[C@@H]1O[C@H](COP(=O)(O)OP(=O)(O)OP(=O)(O)O)[C@@H](O)[C@H]1O [ATP]
Full length human CD39L3 [1]; 1 mM CaCl2, read-out: Km of ATP
  Km: 105 µM
Full length human CD39L3 [1]; 1 mM MgCl2, read-out: Km of ATP
  Km: 60 µM
Full length human CD39L3 [1]; 5 mM CaCl2, read-out: Km of ATP
  Km: 85 µM
Full length human CD39L3 [1]; 5 mM MgCl2, read-out: Km of ATP
  Km: 52 µM

Source: US7556930B2, “CD39L3 and its role in diabetes” (Metabolex Inc., priority 2005, dated 2009)
